{"source": "patent US20240409585A1", "about": "“MACROCYCLIC IMMUNOMODULATORS” (priority 2021, published 2024)", "note": "Bridge positions count the residues as written; N and C are the ends. Square brackets hold non-standard residues; d marks the D form. Peptide text beside a SMILES is read from it. * marks the point of attachment. ξ: configuration not given here. Tyr(3-NO2) = N[C@@H](Cc1ccc(O)c([N+](=O)[O-])c1)C(=O)O; Phe(4-COOH) = N[C@@H](Cc1ccc(C(=O)O)cc1)C(=O)O; Bip = N[C@@H](Cc1ccc(-c2ccccc2)cc1)C(=O)O; Phe(3-OMe) = COc1cccc(C[C@H](N)C(=O)O)c1; Phe(4-CN) = N#Cc1ccc(C[C@H](N)C(=O)O)cc1; Bta = N[C@@H](Cc1csc2ccccc12)C(=O)O; Val(3-OH) = CC(C)(O)[C@H](N)C(=O)O; ξPhe(2-Me) = Cc1ccccc1CC(N)C(=O)O; 4Pal = N[C@@H](Cc1ccncc1)C(=O)O; Cha = N[C@@H](CC1CCCCC1)C(=O)O; Cit = NC(=O)NCCC[C@H](N)C(=O)O; Ile(3ξ) = CCC(C)[C@H](N)C(=O)O; Thr(3ξ) = CC(O)[C@H](N)C(=O)O; hLeu = CC(C)CC[C@H](N)C(=O)O; NEtAla = CCN[C@@H](C)C(=O)O; dOrn = NCCC[C@@H](N)C(=O)O; Carboxymethyl = O=C(O)C*; NMeA = CN[C@@H](C)C(=O)O; Pra = C#CC[C@H](N)C(=O)O; Dab = NCC[C@H](N)C(=O)O; Dap = NC[C@H](N)C(=O)O; Aib = CC(C)(N)C(=O)O"}
{"target": "T1, PE-labeled human PD-L1-Ig binding to Jurkat cell line over-expressing human PD-1 (Jurkat-PD-1) (Homo sapiens, UniProt Q15116)", "T1 construct": "expressed in transfected cells; host or cells: Jurkat", "T1 sequence (Q15116 25-288)": "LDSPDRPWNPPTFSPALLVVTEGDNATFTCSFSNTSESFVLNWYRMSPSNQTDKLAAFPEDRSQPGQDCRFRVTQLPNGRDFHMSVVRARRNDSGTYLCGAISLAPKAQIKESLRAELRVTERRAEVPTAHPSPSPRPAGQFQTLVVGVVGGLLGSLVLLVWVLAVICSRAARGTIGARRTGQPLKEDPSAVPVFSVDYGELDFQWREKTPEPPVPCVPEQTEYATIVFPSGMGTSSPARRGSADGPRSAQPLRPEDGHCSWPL", "assay": "Jurkat-PD-1 Cell Binding High-Content Screening Assay (CBA): Method 1", "settings": "Jurkat-hPD-1 cells, PE-labeled PD-L1-Ig 20 nM final; read-out: Jurkat HPDL1 PD1 IC50 (uM) (Method 1)", "units": {"IC50": "µM"}}
{"smiles": "CC(C)C[C@@H]1NC(=O)[C@H](CCN)NC(=O)[C@@H](CC(C)C)NC(=O)[C@H](C)N(C)C(=O)[C@H](CCCNC(=N)N)NC(=O)[C@H](Cc2ccc(-c3ccccc3)cc2)NC(=O)[C@H](C(C)C)NC(=O)[C@H](Cc2c[nH]c3ccccc23)NC(=O)[C@H](CC(=O)O)NC(=O)[C@H](Cc2ccc(C#N)cc2)NC(=O)[C@H](CN)NC(=O)CSC[C@@H](C(=O)N[C@@H](C)C(N)=O)NC(=O)[C@H]([C@@H](C)O)NC(=O)[C@H](C(C)C)NC1=O", "note": "[Compound 1444] ({CH2CO}-[Dap][Phe(4-CN)]DWV[Bip]R[NMeA][dL][Dab]LVTCA-NH2; thioether N-14)", "IC50": 0.08}
{"smiles": "CC(C)C[C@@H]1NC(=O)[C@H](CC(N)=O)NC(=O)[C@@H](CC(C)C)NC(=O)[C@H](C)N(C)C(=O)[C@H](C(C)C)NC(=O)[C@H](Cc2ccc(-c3ccccc3)cc2)NC(=O)[C@H](CCN)NC(=O)[C@H](Cc2c[nH]c3ccccc23)NC(=O)[C@H](CC(=O)O)NC(=O)[C@H](Cc2ccc(O)cc2)NC(=O)[C@H](Cc2ccccc2)NC(=O)CSC[C@@H](C(=O)N[C@@H](C)C(N)=O)NC(=O)[C@H](CO)NC(=O)[C@H](C(C)C)NC1=O", "note": "[Compound 2025] ({CH2CO}-FYDW[Dab][Bip]V[NMeA][dL]NLVSCA-NH2; thioether N-14)", "IC50": 0.26}
{"smiles": "CCC(C)[C@@H]1NC(=O)[C@H](Cc2ccc(-c3ccccc3)cc2)NC(=O)[C@H](C(C)C)NC(=O)[C@H](Cc2c[nH]c3ccccc23)NC(=O)[C@H](CC(=O)O)NC(=O)[C@H](Cc2ccc(O)cc2)NC(=O)[C@H](CCN)NC(=O)CSC[C@@H](C(=O)N[C@H](C(N)=O)C(C)C)NC(=O)[C@H](C(C)O)NC(=O)[C@H](C(C)(C)O)NC(=O)[C@H](CC2CCCCC2)NC(=O)[C@H](CC(N)=O)NC(=O)[C@@H](CC(C)C)NC(=O)[C@H](C)N(C)C1=O", "note": "(stereo partly drawn) [Compound 2173] ({CH2CO}-[Dab]YDWV[Bip][Ile(3ξ)][NMeA][dL]N[Cha][Val(3-OH)][Thr(3ξ)]CV-NH2; thioether N-14)", "IC50": 0.19}
{"smiles": "CC(C)C[C@@H]1NC(=O)[C@H](CCCNC(=N)N)NC(=O)[C@H](Cc2csc3ccccc23)NC(=O)[C@H](C)N(C)C(=O)[C@H](CCCNC(=N)N)NC(=O)[C@H](Cc2ccc(-c3ccccc3)cc2)NC(=O)[C@H](C(C)C)NC(=O)[C@H](Cc2c[nH]c3ccccc23)NC(=O)[C@H](CC(=O)O)NC(=O)[C@H](Cc2ccc(O)cc2)NC(=O)[C@H](CC(N)=O)NC(=O)CSC[C@@H](C(=O)NCC(N)=O)NC(=O)[C@H](CO)NC(=O)[C@H](C(C)C)NC1=O", "note": "[Compound 1026] ({CH2CO}-NYDWV[Bip]R[NMeA][Bta]RLVSCG-NH2; thioether N-14)", "IC50": 0.13}
{"smiles": "CC[C@H](C)[C@@H]1NC(=O)[C@H](Cc2ccc(-c3ccccc3)cc2)NC(=O)[C@H](C(C)C)NC(=O)[C@H](Cc2c[nH]c3ccccc23)NC(=O)[C@H](CC(=O)O)NC(=O)[C@H](Cc2ccncc2)NC(=O)[C@H](CN)NC(=O)CSC[C@@H](C(=O)N[C@@H](C)C(N)=O)NC(=O)[C@H]([C@@H](C)O)NC(=O)[C@H](C(C)C)NC(=O)[C@H](CC(C)C)NC(=O)[C@H](CCN)NC(=O)[C@@H](CC(C)C)NC(=O)[C@H](C)N(C)C1=O", "note": "[Compound 1405] ({CH2CO}-[Dap][4Pal]DWV[Bip]I[NMeA][dL][Dab]LVTCA-NH2; thioether N-14)", "IC50": 0.03}
{"smiles": "CC(C)C[C@@H]1NC(=O)[C@H](CCCNC(=N)N)NC(=O)C(C)(C)NC(=O)[C@H](C)N(C)C(=O)[C@H](CCCNC(=N)N)NC(=O)[C@H](Cc2ccc(-c3ccccc3)cc2)NC(=O)[C@H](C(C)C)NC(=O)[C@H](Cc2c[nH]c3ccccc23)NC(=O)[C@H](CC(=O)O)NC(=O)[C@H](Cc2ccc(O)cc2)NC(=O)[C@H](Cc2ccccc2)NC(=O)CSC[C@@H](C(=O)NCC(N)=O)NC(=O)[C@H](CO)NC(=O)[C@H](C(C)C)NC1=O", "note": "[Compound 1013] ({CH2CO}-FYDWV[Bip]R[NMeA][Aib]RLVSCG-NH2; thioether N-14)", "IC50": 0.16}
{"smiles": "CC[C@H](C)[C@@H]1NC(=O)[C@H](Cc2ccc(-c3ccccc3)cc2)NC(=O)[C@H](C(C)C)NC(=O)[C@H](Cc2c[nH]c3ccccc23)NC(=O)[C@H](CC(=O)O)NC(=O)[C@H](Cc2ccc(O)cc2)NC(=O)[C@H](Cc2ccc(OCC(=O)O)cc2)NC(=O)CSC[C@@H](C(=O)N[C@@H](C)C(N)=O)NC(=O)[C@H]([C@@H](C)O)NC(=O)[C@H](C(C)C)NC(=O)[C@H](CC2CCCCC2)NC(=O)[C@H](CCCNC(=N)N)NC(=O)[C@@H](CC(C)C)NC(=O)[C@H](C)N(C)C1=O", "note": "[Compound 1493] ({CH2CO}-Y(Carboxymethyl)YDWV[Bip]I[NMeA][dL]R[Cha]VTCA-NH2; thioether N-14)", "IC50": 0.03}
{"smiles": "CCN1C(=O)[C@H](CCCNC(=N)N)NC(=O)[C@H](Cc2ccc(-c3ccccc3)cc2)NC(=O)[C@H](C(C)C)NC(=O)[C@H](Cc2c[nH]c3ccccc23)NC(=O)[C@H](CC(=O)O)NC(=O)[C@H](Cc2ccc(O)cc2)NC(=O)[C@H](CC(N)=O)NC(=O)CSC[C@@H](C(=O)N[C@@H](C)C(N)=O)NC(=O)[C@H]([C@@H](C)O)NC(=O)[C@H](C(C)C)NC(=O)[C@H](CC(C)C)NC(=O)[C@H](CCN)NC(=O)[C@@H](CC(C)C)NC(=O)[C@@H]1C", "note": "[Compound 1207] ({CH2CO}-NYDWV[Bip]R[NEtAla][dL][Dab]LVTCA-NH2; thioether N-14)", "IC50": 0.07}
{"smiles": "COc1cccc(C[C@@H]2NC(=O)[C@H](CN)NC(=O)CSC[C@@H](C(=O)N[C@@H](C)C(N)=O)NC(=O)[C@H]([C@@H](C)O)NC(=O)[C@H](C(C)C)NC(=O)[C@H](CC(C)C)NC(=O)[C@H](CCN)NC(=O)[C@@H](CC(C)C)NC(=O)[C@H](C)N(C)C(=O)[C@H](Cc3cnc[nH]3)NC(=O)[C@H](Cc3ccc(-c4ccccc4)cc3)NC(=O)[C@H](C(C)C)NC(=O)[C@H](Cc3c[nH]c4ccccc34)NC(=O)[C@H](CC(=O)O)NC2=O)c1", "note": "[Compound 1423] ({CH2CO}-[Dap][Phe(3-OMe)]DWV[Bip]H[NMeA][dL][Dab]LVTCA-NH2; thioether N-14)", "IC50": 0.07}
{"smiles": "CC(C)C[C@@H]1NC(=O)CSC[C@@H](C(=O)N[C@@H](C)C(N)=O)NC(=O)[C@H](CO)NC(=O)[C@H](C(C)C)NC(=O)[C@H](CC(C)C)NC(=O)[C@H](CCCNC(=N)N)NC(=O)[C@H](Cc2csc3ccccc23)NC(=O)[C@H](C)N(C)C(=O)[C@H](CCCNC(=N)N)NC(=O)[C@H](Cc2ccc(-c3ccccc3)cc2)NC(=O)[C@H](C(C)C)NC(=O)[C@H](Cc2c[nH]c3ccccc23)NC(=O)[C@H](CC(=O)O)NC(=O)[C@H](Cc2ccc(O)cc2)NC1=O", "note": "[Compound 1041] ({CH2CO}-LYDWV[Bip]R[NMeA][Bta]RLVSCA-NH2; thioether N-14)", "IC50": 0.31}
{"smiles": "CC(C)CC[C@@H]1NC(=O)[C@H](CCCNC(=N)N)NC(=O)[C@@H](CC(C)C)NC(=O)[C@H](C)N(C)C(=O)[C@H](CCCNC(=N)N)NC(=O)[C@H](Cc2ccc(-c3ccccc3)cc2)NC(=O)[C@H](C(C)C)NC(=O)[C@H](Cc2c[nH]c3ccccc23)NC(=O)[C@H](CC(=O)O)NC(=O)[C@H](Cc2ccc(O)cc2)NC(=O)[C@H](Cc2ccccc2)NC(=O)CSC[C@@H](C(=O)N[C@@H](C)C(N)=O)NC(=O)[C@H]([C@@H](C)O)NC(=O)[C@H](C(C)C)NC1=O", "note": "[Compound 1116] ({CH2CO}-FYDWV[Bip]R[NMeA][dL]R[hLeu]VTCA-NH2; thioether N-14)", "IC50": 0.06}
{"smiles": "C#CC[C@H](NC(=O)[C@@H](C)NC(=O)[C@@H]1CSCC(=O)N[C@@H](Cc2ccc(OCC(=O)O)cc2)C(=O)N[C@@H](Cc2ccc(C(=O)O)cc2)C(=O)N[C@@H](CC(=O)O)C(=O)N[C@@H](Cc2c[nH]c3ccccc23)C(=O)N[C@@H](CC(C)C)C(=O)N[C@@H](Cc2ccc(-c3ccccc3)cc2)C(=O)N[C@@H](C(C)C)C(=O)N(C)[C@@H](C)C(=O)N[C@H](CC(C)C)C(=O)N[C@@H](CCN)C(=O)N[C@@H](CC2CCCCC2)C(=O)N[C@@H](C(C)(C)O)C(=O)N[C@@H](CO)C(=O)N1)C(N)=O", "note": "[Compound 1940] ({CH2CO}-Y(Carboxymethyl)[Phe(4-COOH)]DWL[Bip]V[NMeA][dL][Dab][Cha][Val(3-OH)]SC[dA][Pra]-NH2; thioether N-14)", "IC50": 0.02}
{"smiles": "CC(C)C[C@@H]1NC(=O)[C@H](CCN)NC(=O)[C@@H](CC(C)C)NC(=O)[C@H](C)N(C)C(=O)[C@H](CCCNC(N)=O)NC(=O)[C@H](Cc2ccc(-c3ccccc3)cc2)NC(=O)[C@H](C(C)C)NC(=O)[C@H](Cc2c[nH]c3ccccc23)NC(=O)[C@H](CC(=O)O)NC(=O)[C@H](Cc2ccc(O)c([N+](=O)[O-])c2)NC(=O)[C@H](CC(N)=O)NC(=O)CSC[C@@H](C(=O)N[C@@H](C)C(N)=O)NC(=O)[C@H]([C@@H](C)O)NC(=O)[C@H](C(C)C)NC1=O", "note": "[Compound 1319] ({CH2CO}-N[Tyr(3-NO2)]DWV[Bip][Cit][NMeA][dL][Dab]LVTCA-NH2; thioether N-14)", "IC50": 0.04}
{"smiles": "CC(C)C[C@@H]1NC(=O)[C@H](Cc2c[nH]c3ccccc23)NC(=O)[C@H](CC(=O)O)NC(=O)[C@H](Cc2ccc(O)cc2)NC(=O)[C@H](Cc2ccccc2)NC(=O)CSC[C@@H](C(=O)N[C@@H](C)C(N)=O)NC(=O)[C@H](CO)NC(=O)[C@H](C(C)C)NC(=O)[C@H](CC(C)C)NC(=O)[C@H](CC(N)=O)NC(=O)[C@@H](CCCN)NC(=O)[C@H](C)N(C)C(=O)[C@H](C(C)C)NC(=O)[C@H](Cc2ccc(-c3ccccc3)cc2)NC1=O", "note": "[Compound 1802] ({CH2CO}-FYDWL[Bip]V[NMeA][dOrn]NLVSCA-NH2; thioether N-14)", "IC50": 0.19}
{"smiles": "Cc1ccccc1CC1NC(=O)[C@H](C)N(C)C(=O)[C@H](CCCNC(=N)N)NC(=O)[C@H](Cc2ccc(-c3ccccc3)cc2)NC(=O)[C@H](C(C)C)NC(=O)[C@H](Cc2c[nH]c3ccccc23)NC(=O)[C@H](CC(=O)O)NC(=O)[C@H](Cc2ccc(O)cc2)NC(=O)[C@H](Cc2ccccc2)NC(=O)CSC[C@@H](C(=O)N[C@@H](C)C(N)=O)NC(=O)[C@H]([C@@H](C)O)NC(=O)[C@H](C(C)C)NC(=O)[C@H](CC(C)C)NC(=O)[C@H](CCCNC(=N)N)NC1=O", "note": "(stereo partly drawn) [Compound 1065] ({CH2CO}-FYDWV[Bip]R[NMeA][ξPhe(2-Me)]RLVTCA-NH2; thioether N-14)", "IC50": 0.11}
